Like-named read-outs stand apart in the source and are kept apart here.
Tests used:
Test in all cases: Test C pre/postemergence
Assay type in all cases: in vivo
[1] = test system: goosegrass (Eleusine indica); details: Eleusine indica, pre-emergence, Preemergence, scale 0 to 100, read-out: Plant response rating, Goosegrass
Method in brief: (§1)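 Seeds sown and sprayed preemergence with test compound in non-phytotoxic solvent containing surfactant; postemergence sprays, same formulation, went onto plants 2 to 18 cm tall (1- to 4-leaf stage). Plants held in greenhouse 12 to 14 days, then visually rated against untreated controls on a 0–100 scale (0 no effect, 100 complete control).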

soybean (Glycine max) = details: Glycine max; for plant injury at 31 g/ha: 31 g ai/ha; for plant injury at 62 g/ha: 62 g ai/ha; for plant injury at 125 g/ha: 125 g ai/ha; for plant injury at 250 g/ha: 250 g ai/ha
Method in brief: as §1

[2] = test system: lambsquarters (Chenopodium album); details: Chenopodium album; for pest or weed control at 31 g/ha: 31 g ai/ha; for pest or weed control at 62 g/ha: 62 g ai/ha; for pest or weed control at 125 g/ha: 125 g ai/ha; for pest or weed control at 250 g/ha: 250 g ai/ha
Method in brief: as §1

[3] = test system: giant foxtail (Setaria faberii); details: Setaria faberi; for pest or weed control at 125 g/ha: 125 g ai/ha; for pest or weed control at 31 g/ha: 31 g ai/ha; for pest or weed control at 62 g/ha: 62 g ai/ha; for pest or weed control at 250 g/ha: 250 g ai/ha
Method in brief: as §1

[4] = test system: eastern black nightshade (Solanum ptycanthum); details: Solanum, pre-emergence, Preemergence, read-out: Plant response rating, Nightshade
Method in brief: as §1

[5] = test system: yellow nutsedge (Cyperus esculentus); details: Cyperus; for pest or weed control at 31 g/ha: 31 g ai/ha; for pest or weed control at 62 g/ha: 62 g ai/ha; for pest or weed control at 125 g/ha: 125 g ai/ha; for pest or weed control at 250 g/ha: 250 g ai/ha
Method in brief: as §1

[6] = test system: bermudagrass (Cynodon dactylon); details: Cynodon dactylon; for pest or weed control at 31 g/ha: 31 g ai/ha; for pest or weed control at 62 g/ha: 62 g ai/ha; for pest or weed control at 125 g/ha: 125 g ai/ha; for pest or weed control at 250 g/ha: 250 g ai/ha
Method in brief: as §1

[7] = post-emergence, Postemergence, scale 0 to 100 (0 no effect, 100 complete control), read-out: Soybean plant response rating
[8] = pre-emergence, Preemergence, scale 0 to 100, 0 no effect, 100 complete control, read-out: Plant response rating, Soybean
[9] = pre-emergence, Preemergence, scale 0 to 100, read-out: Plant response rating, Soybean
[10] = post-emergence, Postemergence, scale 0 to 100 (0 no effect, 100 complete control), read-out: Lambsquarters plant response rating
[11] = pre-emergence, Preemergence, scale 0 to 100, 0 no effect, 100 complete control, read-out: Plant response rating, Lambsquarters
[12] = pre-emergence, Preemergence, scale 0 to 100, read-out: Plant response rating, Lambsquarters
[13] = post-emergence, Postemergence, scale 0 to 100 (0 no effect, 100 complete control), read-out: Foxtail, Giant plant response rating
[14] = pre-emergence, Preemergence, scale 0 to 100, 0 no effect, 100 complete control, read-out: Plant response rating, Foxtail, Giant
[15] = pre-emergence, Preemergence, scale 0 to 100, read-out: Plant response rating, Foxtail, Giant
[16] = post-emergence, Postemergence, scale 0 to 100 (0 no effect, 100 complete control), read-out: Nutsedge, Yellow plant response rating
[17] = pre-emergence, Preemergence, scale 0 to 100, 0 no effect, 100 complete control, read-out: Plant response rating, Nutsedge, Yellow
[18] = pre-emergence, Preemergence, scale 0 to 100, read-out: Plant response rating, Nutsedge, Yellow
[19] = post-emergence, Postemergence, scale 0 to 100 (0 no effect, 100 complete control), read-out: Bermudagrass plant response rating
[20] = pre-emergence, Preemergence, scale 0 to 100, 0 no effect, 100 complete control, read-out: Plant response rating, Bermudagrass
[21] = pre-emergence, Preemergence, scale 0 to 100, read-out: Plant response rating, Bermudagrass

CCOC(=O)c1nc(C2CC2)nc(N)c1F [Compound 30]
100%: pest or weed control at 125 g/ha ([4]; 125 g ai/ha, scale 0 to 100) | pest or weed control at 250 g/ha ([4]; 250 g ai/ha, scale 0 to 100)
5%: plant injury at 62 g/ha (soybean (Glycine max); [8]) | plant injury at 125 g/ha (soybean (Glycine max); [9]) | pest or weed control at 250 g/ha ([5]; post-emergence, Postemergence, scale 0 to 100, read-out: Plant response rating, Nutsedge, Yellow) | pest or weed control at 125 g/ha [6, 19] | pest or weed control at 250 g/ha ([6]; post-emergence, Postemergence, scale 0 to 100, read-out: Plant response rating, Bermudagrass)
95%: plant injury at 250 g/ha (soybean (Glycine max); post-emergence, Postemergence, scale 0 to 100, read-out: Plant response rating, Soybean)
40%: pest or weed control at 250 g/ha ([3]; post-emergence, Postemergence, scale 0 to 100, read-out: Plant response rating, Foxtail, Giant)
80%: plant injury at 31 g/ha (soybean (Glycine max); post-emergence, Postemergence, read-out: Plant response rating (scale of 0 to 100), Soybean) | pest or weed control at 125 g/ha [2, 10] | pest or weed control at 62 g/ha [2, 11] | pest or weed control at 62 g/ha ([4]; 62 g ai/ha, scale 0 to 100, 0 no effect, 100 complete control)
60%: pest or weed control at 62 g/ha [2, 10] | pest or weed control at 250 g/ha [3, 15]
50%: pest or weed control at 250 g/ha ([1]; 250 g ai/ha) | pest or weed control at 31 g/ha ([2]; post-emergence, Postemergence, read-out: Plant response rating (scale of 0 to 100), Lambsquarters) | pest or weed control at 31 g/ha ([4]; 31 g ai/ha, scale 0 to 100, 0 no effect, 100 complete control)
90%: plant injury at 62 g/ha (soybean (Glycine max); [7]) | plant injury at 125 g/ha (soybean (Glycine max); [7]) | pest or weed control at 250 g/ha ([2]; post-emergence, Postemergence, scale 0 to 100, read-out: Plant response rating, Lambsquarters) | pest or weed control at 250 g/ha [2, 12]
70%: plant injury at 250 g/ha (soybean (Glycine max); [9])
85%: pest or weed control at 125 g/ha [2, 12]
35%: pest or weed control at 125 g/ha ([1]; 125 g ai/ha)
20%: pest or weed control at 125 g/ha [3, 15]
0%: plant injury at 31 g/ha (soybean (Glycine max); [8]) | pest or weed control at 31 g/ha [2, 11] | pest or weed control at 125 g/ha [3, 13] | pest or weed control at 31 g/ha ([3]; post-emergence, Postemergence, read-out: Plant response rating (scale of 0 to 100), Foxtail, Giant) | pest or weed control at 62 g/ha [3, 13] | pest or weed control at 31 g/ha [3, 14] | pest or weed control at 62 g/ha [3, 14] | pest or weed control at 31 g/ha ([5]; post-emergence, Postemergence, read-out: Plant response rating (scale of 0 to 100), Nutsedge, Yellow) | pest or weed control at 62 g/ha [5, 16] | pest or weed control at 125 g/ha [5, 16] | pest or weed control at 31 g/ha [5, 17] | pest or weed control at 62 g/ha [5, 17] | pest or weed control at 125 g/ha [5, 18] | pest or weed control at 250 g/ha [5, 18] | pest or weed control at 31 g/ha ([6]; post-emergence, Postemergence, read-out: Plant response rating (scale of 0 to 100), Bermudagrass) | pest or weed control at 62 g/ha [6, 19] | pest or weed control at 31 g/ha [6, 20] | pest or weed control at 62 g/ha [6, 20] | pest or weed control at 125 g/ha [6, 21] | pest or weed control at 250 g/ha [6, 21]
